This passage reports inhibition and Activity results from ChEMBL document CHEMBL5647694, “Novel orally bioavailable EZH1/2 dual inhibitors with greater antitumor efficacy than an EZH2 selective inhibitor” (Cancer Sci, 2017).

The structures appear in SMILES notation.

In general, inhibition refers to the change of the read-out against control, counted positive when it falls.

The target in assay [1] is Serine/threonine-protein kinase MRCK beta (Homo sapiens) (UniProt Q9Y5S2). The assay can be described thus: Inhibition of N-terminal GST-fused truncated human MRCKbeta (1 to 473 residues) expressed in baculovirus expression system using DAPK1tide as substrate at 1 uM in presence of ATP by Mobility shift assay.
For assay [2], the target named is Serine/threonine-protein kinase pim-1 (Homo sapiens) (UniProt P11309). The assay can be described thus: Inhibition of N-terminal His-tagged full length human PIM1 (1 to 313 residues) expressed in baculovirus expression system using S6K2 peptide as substrate at 1 uM in presence of ATP by Mobility shift assay.
The target of assay [3] is Protein-tyrosine kinase 6 (Homo sapiens) (UniProt Q13882). The experiment in a line: Inhibition of N-terminal GST-fused full length human BRK (2 to 451 residues) expressed in baculovirus-infected Sf21 cells using Blk/Lyntide as substrate at 1 uM in presence of ATP by Mobility shift assay.
Assay [4] has as its target Dual specificity tyrosine-phosphorylation-regulated kinase 2 (Homo sapiens) (UniProt Q92630). The experiment in a line: Inhibition of N-terminal GST-fused full length human DYRK2 (1 to 528 residues) expressed in baculovirus expression system using DYRKtide-F as substrate at 1 uM in presence of ATP by Mobility shift assay.
In assay [5] the target is Casein kinase II alpha/beta (Homo sapiens) (UniProt P67870+P68400). The assay can be described thus: Inhibition of N-terminal GST-fused full length human CK2alpha1 (1 to 391 residues)/His-tagged human CK2beta (1 to 215 residues) expressed in baculovirus expression system using CK2tide as substrate at 1 uM in presence of ATP by Mobility shift assay.
Assay [6] has as its target MAP/microtubule affinity-regulating kinase 3 (Homo sapiens) (UniProt P27448). The assay can be described thus: Inhibition of N-terminal GST-fused full length human MARK3 (1 to 729 residues) expressed in baculovirus expression system using CHKtide as substrate at 1 uM in presence of ATP by Mobility shift assay.
In assay [7] the target is Ephrin type-B receptor 1 (Homo sapiens) (UniProt P54762). The assay can be described thus: Inhibition of N-terminal GST-fused human EPHB1 cytoplasmic domain (578 to 984 residues) expressed in baculovirus-infected Sf21 cells using Blk/Lyntide as substrate at 1 uM in presence of ATP by Mobility shift assay.
For another assay, the species on record is Homo sapiens. The experiment in a line: Competitive inhibition of PRC2-EZH2 (unknown origin) assessed as intensity of SAM signal using SAM as substrate at 800 uM by STD-NMR analysis (reference value: 100%). More on the design: scale not given: the % may be the effect or the level left.
Assay [8] addresses Macrophage-stimulating protein receptor (Homo sapiens) (UniProt Q04912). The assay can be described thus: Inhibition of N-terminal GST-tagged human RON cytoplasmic domain (979 to 1400 residues) expressed in baculovirus-infected Sf21 cells using Srctide as substrate at 1 uM in presence of ATP by Mobility shift assay.
Assay [9] deals with Mitogen-activated protein kinase 1 (Homo sapiens) (UniProt P28482). The experiment in a line: Inhibition of N-terminal GST-fused full length human ERK2 (1 to 360 residues) expressed in Escherichia coli expression system using Modified Erktide as substrate at 1 uM in presence of ATP by Mobility shift assay.
In assay [10] the target is STE20-like serine/threonine-protein kinase (Homo sapiens) (UniProt Q9H2G2). The experiment in a line: Inhibition of N-terminal GST-fused full length human SLK (1 to 1152 residues) expressed in baculovirus expression system using Moesin-derived peptide as substrate at 1 uM in presence of ATP by Mobility shift assay.
In assay [11] the target is Serine/threonine-protein kinase 38-like (Homo sapiens) (UniProt Q9Y2H1). The assay can be described thus: Inhibition of N-terminal GST-fused full length human NDR2 (1 to 464 residues) expressed in baculovirus expression system using SGKtide as substrate at 1 uM in presence of ATP by Mobility shift assay.
For assay [12], the target named is Serine/threonine-protein kinase TBK1 (Homo sapiens) (UniProt Q9UHD2). The assay can be described thus: Inhibition of N-terminal GST-fused full length human TBK1 (1 to 729 residues) expressed in baculovirus expression system using CKtide as substrate at 1 uM in presence of ATP by Mobility shift assay.
Assay [13] deals with Serine/threonine-protein kinase Nek9 (Homo sapiens) (UniProt Q8TD19). The assay can be described thus: Inhibition of N-terminal GST-fused truncated human NEK9 (1 to 346, 733 to 979 residues) expressed in baculovirus expression system using CDK7 peptide as substrate at 1 uM in presence of ATP by Mobility shift assay.
The target in assay [14] is Tyrosine-protein kinase ABL2 (Homo sapiens) (UniProt P42684). The assay can be described thus: Inhibition of N-terminal GST-fused truncated human ARG (2 to 52, 74 to 1182 residues) expressed in baculovirus-infected Sf21 cells using ABLtide as substrate at 1 uM in presence of ATP by Mobility shift assay.
Assay [15] addresses Ephrin type-B receptor 3 (Homo sapiens) (UniProt P54753). The assay can be described thus: Inhibition of N-terminal GST-fused human EPHB3 cytoplasmic domain (596 to 998 residues) expressed in baculovirus-infected Sf21 cells using Blk/Lyntide as substrate at 1 uM in presence of ATP by Mobility shift assay.
Assay [16] concerns the target Calcium/calmodulin-dependent protein kinase type II subunit gamma (Homo sapiens) (UniProt Q13555). The assay can be described thus: Inhibition of N-terminal GST-tagged full length human CAMK2g (1 to 518 residues) expressed in baculovirus-infected Sf21 cells using GS peptide as substrate at 1 uM in presence of ATP by Mobility shift assay.
Assay [17] has as its target Dual specificity protein kinase CLK1 (Homo sapiens) (UniProt P49759). The experiment in a line: Inhibition of N-terminal GST fused human CLK1 catalytic domain (129 to 484 residues) expressed in baculovirus expression system using DYRKtide-F as substrate at 1 uM in presence of ATP by Mobility shift assay.
Assay [18] has as its target Cyclin-dependent kinase 5/CDK5 activator 1 (Homo sapiens) (UniProt Q00535+Q15078). The experiment in a line: Inhibition of N-terminal GST-tagged full length human CDK5 (1 to 292 residues)/N-terminal GST-tagged human p25 (99 to 307 residues) expressed in baculovirus-infected Sf21 cells using Modified Histone H1 as substrate at 1 uM in presence of ATP by Mobility shift assay.

In assay [19] the target is Tyrosine-protein kinase JAK3 (Homo sapiens) (UniProt P52333). The experiment in a line: Inhibition of N-terminal His-tagged human JAK3 catalytic domain (795 to 1124 residues) expressed in baculovirus-infected Sf21 cells using Srctide as substrate at 1 uM in presence of ATP by Mobility shift assay.
Assay [20] deals with cGMP-dependent protein kinase 1 (Homo sapiens) (UniProt Q13976). The assay can be described thus: Inhibition of N-terminal GST-fused human full length […] (1 to 686 residues) expressed in baculovirus expression system using Kemptide as substrate at 1 uM in presence of ATP by Mobility shift assay.
Assay [21] concerns the target Tyrosine-protein kinase Yes (Homo sapiens) (UniProt P07947). The assay can be described thus: Inhibition of N-terminal GST-tagged full length human YES (1 to 543 residues) expressed in baculovirus-infected Sf21 cells using Srctide as substrate at 1 uM in presence of ATP by Mobility shift assay.

With `Cc1cc(C)c(CNC(=O)c2cc(Br)c3c(c2C)O[C@@](C)([C@H]2CC[C@H](N(C)C)CC2)O3)c(=O)[nH]1`, the inhibition is -1% in assay [1]; 1.3% in assay [2]; -3.9% in [3]; -2.3% in assay [4]; -5.8% in assay [5]; 0.7% in [6]. The inhibition in assay [7] is -2.7%; in assay [8] it was -4.9%; in assay [9], -6.6%; in [10] it was 1.6%; in [11], -2.4%; in assay [12], -4.6%. The inhibition is -3.3% in assay [13]; -7.4% in assay [14]; -4.4% in assay [15]; -4.8% in assay [16]; -3.3% in [17]; 5.9% in assay [18]. For the same compound, the inhibition in assay [19] is -1.7%; in assay [20] it was -4.3%; in [21], -1.6%. Moreover, the Activity in the assay filed under Homo sapiens came out at 59%.
Regarding `Cc1cc(C)c(CNC(=O)c2cc(Cl)c3c(c2C)O[C@@](C)([C@H]2CC[C@H](N(C)C)CC2)O3)c(=O)[nH]1` [VALEMETOSTAT], the inhibition is -1.3% in [1]; 17.1% in assay [2]; -3% in assay [3]; 6% in assay [4]; -4% in assay [5]; 5.7% in assay [6]. The inhibition in [7] was -3.4%; in assay [8], -3.5%; in assay [9], -8.8%; in assay [10], 3.3%; in [11], -1.3%; in assay [12], -2.6%. Further, the inhibition was -1.9% in [13]; -8.7% in assay [14]; -5.9% in assay [15]; -5.4% in assay [16]; 1.7% in assay [17]; -2.4% in [18]. Further, the inhibition in [19] is -4%; in assay [20], -2.1%; in assay [21] it was -1.8%. The Activity in the assay listed under Homo sapiens is 62%.
